pIC50: −log10 of the molar value. Like-named read-outs stand apart in the source and are kept apart here.
Biological target: T1, PD-1/PD-L1 protein/protein interaction (Homo sapiens, UniProt Q9NZQ7)
T1 construct: Recombinant human PD-L1 protein (19-238) with a His-tag at the C-terminus; purchased AcroBiosystems PD1-H5229 (PD-L1); PD1-H5257 (PD-1)
Experiment: PD-1/PD-L1 homogenous time-resolved fluorescence (HTRF) binding assay
Description: Resolved Fluorescence (HTRF) Binding Assay
The assays were conducted in a standard black 384-well polystyrene plate with a final volume of 20 μL. Inhibitors were first serially diluted in DMSO and then added to the plate wells before the addition of other reaction components. The final concentration of DMSO in the assay was 1%. The assays were carried out at 25° C. in the PBS buffer (pH 7.4) with 0.05% Tween-20 and 0.1% BSA. […] Plates were centrifuged and proteins were preincubated with inhibitors for 40 min. The incubation was followed by the addition of 10 μL of HTRF detection buffer supplemented with Europium cryptate-labeled anti-human IgG (PerkinElmer-AD0212) specific for Fc and anti-His antibody conjugated to SureLight®-Allophycocyanin (APC, PerkinElmer-AD0059H). After centrifugation, the plate was incubated at 25° C. for 60 min. […] Final concentrations in the assay were […], 10 nM PD-L1, nM europium anti-human IgG and 20 nM anti-His-Allophycocyanin. IC50 determination was performed by fitting the curve of percent control activity versus the log of the inhibitor concentration using the GraphPad Prism 5.0 software.

[1] = HTRF, recombinant human PD-1 (Fc tag) / PD-L1 (His-tag), 25° C., PBS pH 7.4, class symbols, read-out: IC50

T1 sequence (Q9NZQ7 19-238): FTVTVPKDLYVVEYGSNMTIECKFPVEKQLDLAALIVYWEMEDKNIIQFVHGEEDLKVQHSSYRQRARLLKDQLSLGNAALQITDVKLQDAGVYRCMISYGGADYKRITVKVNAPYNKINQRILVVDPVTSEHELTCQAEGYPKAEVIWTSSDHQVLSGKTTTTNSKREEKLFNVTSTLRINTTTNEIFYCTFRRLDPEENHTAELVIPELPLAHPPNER

SMILES	pIC50 [1]	pIC50
COc1cc2oc(-c3cccc(-c4ccc(Cl)c(OCCCN5CCOCC5)c4)c3C)nc2cc1CN1CCCCC1C(=O)O (stereo not drawn) [Compound 11, 1-((2-(4′-chloro-2-methyl-3′-(3-morpholinopropoxy)-[1,1′-biphenyl]-3-yl)-6-methoxybenzo[d]oxazol-5-yl)methyl)piperidine-2-carboxylic acid]	6.82 to 7.60	
Cc1c(OCCCN2CCOCC2)cccc1-c1cccc(-c2nc3cc(CN(C)CC(=O)O)c(N(C)C)cc3o2)c1C [Compound 37, N-((2-(2,2′-dimethyl-3′-(3-morpholinopropoxy)-[1,1′-biphenyl]-3-yl)-6-(dimethylamino)benzo[d]oxazol-5-yl)methyl)-N-methylglycine]		> 7.60
COc1cc2oc(-c3cccc(-c4cccc(CCCN5CCOCC5)c4)c3C)nc2cc1CN1CCCCC1C(=O)O (stereo not drawn) [Compound 4, 1-((6-methoxy-2-(2-methyl-3′-(3-morpholinopropyl)-[1,1′-biphenyl]-3-yl)benzo[d]oxazol-5-yl)methyl)piperidine-2-carboxylic acid]		> 7.60
COc1cc2oc(-c3cccc(-c4cccc(OCCCN5CCOCC5)c4C#N)c3C)nc2cc1CN1CCOCC1C(=O)O (stereo not drawn) [Compound 18, 4-((2-(2′-cyano-2-methyl-3′-(3-morpholinopropoxy)-[1,1′-biphenyl]-3-yl)-6-methoxybenzo[d]oxazol-5-yl)methyl)morpholine-3-carboxylic acid]		> 7.60
COc1cc2nc(-c3cccc(-c4cccc(OCCCN5CCOCC5)c4)c3C)sc2cc1CN1CCCC1C(=O)O (stereo not drawn) [Compound 26, ((5-methoxy-2-(2-methyl-3′-(3-morpholinopropoxy)-[1,1′-biphenyl]-3-yl)benzo[d]thiazol-6-yl)methyl)proline]		> 7.60
COc1cc2oc(-c3cccc(-c4cccc(OCCCN5CCOCC5)c4)c3C)nc2cc1CN(C)CC(=O)O [Compound 19, N-((6-methoxy-2-(2-methyl-3′-(3-morpholinopropoxy)-[1,1′-biphenyl]-3-yl)benzo[d]oxazol-5-yl)methyl)-N-methylglycine]	6.82 to 7.60	
COc1cc2oc(-c3cccc(-c4cccc(NC(=O)CCN5CCOCC5)c4C)c3C)nc2cc1CN1CCCCC1C(=O)O (stereo not drawn) [Compound 8, 1-((2-(2,2′-dimethyl-3′-(3-morpholinopropanamido)-[1,1′-biphenyl]-3-yl)-6-methoxybenzo[d]oxazol-5-yl)methyl)piperidine-2-carboxylic acid]		> 7.60
COc1cc2oc(-c3cccc(-c4cccc(OCCCN5CCOCC5)c4)c3C)nc2cc1CN(C)C [Compound 2, 1-(6-methoxy-2-(2-methyl-3′-(3-morpholinopropoxy)-[1,1′-biphenyl]-3-yl)benzo[d]oxazol-5-yl)-N,N-dimethylmethanamine]	6.82 to 7.60	
COc1cc2oc(-c3cccc(-c4cccc(C/C=C/CN5CCOCC5)c4C)c3C)nc2cc1CN1CCCCC1C(=O)O (stereo not drawn) [Compound 6, (E)-1-((2-(2,2′-dimethyl-3′-(4-morpholinobut-2-en-1-yl)-[1,1′-biphenyl]-3-yl)-6-methoxybenzo[d]oxazol-5-yl)methyl)piperidine-2-carboxylic acid]		> 7.60
COc1cc2sc(-c3cccc(-c4cccc(OCCCN5CCOCC5)c4)c3C)nc2cc1CN1CCCC1C(=O)O (stereo not drawn) [Compound 25, ((6-methoxy-2-(2-methyl-3′-(3-morpholinopropoxy)-[1,1′-biphenyl]-3-yl)benzo[d]thiazol-5-yl)methyl)proline]		> 7.60
COc1cc2oc(-c3cccc(-c4cccc(OCCCN(C)C)c4C)c3C)nc2cc1CN1CCCCC1C(=O)O (stereo not drawn) [Compound 30, 1-((2-(3′-(3-(dimethylamino)propoxy)-2,2′-dimethyl-[1,1′-biphenyl]-3-yl)-6-methoxybenzo[d]oxazol-5-yl)methyl)piperidine-2-carboxylic acid]		> 7.60
COc1cc2nc(-c3cccc(-c4cccc(OCCCN5CCOCC5)c4)c3C)n(C)c2cc1CN1CCCCC1C(=O)O (stereo not drawn) [Compound 33, 1-((5-methoxy-1-methyl-2-(2-methyl-3′-(3-morpholinopropoxy)-[1,1′-biphenyl]-3-yl)-1H-benzo[d]imidazol-6-yl)methyl)piperidine-2-carboxylic acid]		> 7.60
COc1cc2nc(-c3cccc(-c4cccc(OCCCN5CCOCC5)c4)c3C)oc2cc1CN1CCCCC1C(=O)O (stereo not drawn) [Compound 34, 1-((5-methoxy-2-(2-methyl-3′-(3-morpholinopropoxy)-[1,1′-biphenyl]-3-yl)benzo[d]oxazol-6-yl)methyl)piperidine-2-carboxylic acid]		> 7.60
Cc1c(OCCCN2CCOCC2)cccc1-c1cccc(-c2nc3cc(CNCC(=O)O)c(N(C)C)cc3s2)c1C [Compound 36, ((2-(2,2′-dimethyl-3′-(3-morpholinopropoxy)-[1,1′-biphenyl]-3-yl)-6-(dimethylamino)benzo[d]thiazol-5-yl)methyl)glycine]	6.82 to 7.60	
COc1cc2oc(-c3cccc(-c4cccc5c4CCN5C(=O)CN4CCOCC4)c3C)nc2cc1CN1CCCCC1C(=O)O (stereo not drawn) [Compound 40, 1-((6-methoxy-2-(2-methyl-3-(1-(2-morpholinoacetyl)indolin-4-yl)phenyl)benzo[d]oxazol-5-yl)methyl)piperidine-2-carboxylic acid]	< 6.82	
